According to US12077503B2, “Substituted cyclic amides and their use as herbicides” (FMC CORPORATION, priority 2015, dated 2024):

What was measured:
Format in all cases: in vivo
rice (Oryra sativa) = assay: Test B flooded paddy test; conditions: Flood, 0 to 100 scale where 0 is no effect and 100 is complete control, 13 to 15 d
Outline: (§1)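 Greenhouse paddy pots with 2-leaf stage plants received compound by direct addition to floodwater 3 cm deep, kept at that level. Scored visually at 13–15 d versus controls (0 no effect; 100 complete control).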

[1] = test system: sedge, umbrella (small-flower umbrella sedge, Cyperus difformis); assay: Test B flooded paddy test; conditions: Flood, 0 to 100 scale where 0 is no effect and 100 is complete control, 13 to 15 d
Outline: as §1

[2] = test system: barnyardgrass (Echinochloa crus-galli); assay: Test B flooded paddy test; conditions: Flood, 0 to 100 scale where 0 is no effect and 100 is complete control, 13 to 15 d
Outline: as §1

[3] = test system: ducksalad (Heteranthera limosa); assay: Test B flooded paddy test; conditions: Flood, 0 to 100 scale where 0 is no effect and 100 is complete control, 13 to 15 d
Outline: as §1

[4] = test system: giant foxtail (Setaria faberii); assay: Test A preemergence; conditions: for Plant response rating, Foxtail, Giant: 125 g ai/ha, preemergence, 0 to 100 scale (0 no effect, 100 complete control); for Foxtail, Giant plant response rating (0 to 100 scale, 0 is no effect, 100 is complete control): Preemergence, 500 g ai/ha, visual injury approx. 10 d
Outline: (§2)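 Compounds were formulated in a non-phytotoxic solvent mixture with surfactant and applied as a preemergence directed soil spray after seeding, or sprayed postemergence over plants 2 to 10 cm tall at the one- to two-leaf stage. Evaluation after about 10 d compared treated with untreated controls, using a scale from 0 (no effect) to 100 (complete control).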

Kochia (Kochia scoparia) [5] = assay: Test A preemergence; conditions: for Plant response rating, Kochia: 125 g ai/ha, preemergence, 0 to 100 scale (0 no effect, 100 complete control); for Kochia plant response rating (0 to 100 scale, 0 is no effect, 100 is complete control): Preemergence, 500 g ai/ha, visual injury approx. 10 d
Outline: as §2

[6] = test system: pigweed (Amaranthus retroflexus); assay: Test A preemergence; conditions: for Plant response rating, Pigweed: 125 g ai/ha, preemergence, 0 to 100 scale (0 no effect, 100 complete control); for Pigweed plant response rating (0 to 100 scale, 0 is no effect, 100 is complete control): Preemergence, 500 g ai/ha, visual injury approx. 10 d
[7] = test system: ragweed (common ragweed, Ambrosia elatior); assay: Test A preemergence; conditions: for Plant response rating, Ragweed: 125 g ai/ha, preemergence, 0 to 100 scale (0 no effect, 100 complete control); for Ragweed plant response rating (0 to 100 scale, 0 is no effect, 100 is complete control): Preemergence, 500 g ai/ha, visual injury approx. 10 d
Outline: as §2

[8] = test system: ryegrass, Italian (Italian ryegrass, Lolium multiflorum); assay: Test A preemergence; conditions: for Plant response rating, Ryegrass, Italian: 125 g ai/ha, preemergence, 0 to 100 scale (0 no effect, 100 complete control); for Ryegrass, Italian plant response rating (0 to 100 scale, 0 is no effect, 100 is complete control): Preemergence, 500 g ai/ha, visual injury approx. 10 d
Outline: as §2

[9] = test system: barnyardgrass (Echinochloa crus-galli); assay: Test A preemergence; conditions: for Plant response rating, Barnyardgrass: 125 g ai/ha, preemergence, 0 to 100 scale (0 no effect, 100 complete control); for Barnyardgrass plant response rating (0 to 100 scale, 0 is no effect, 100 is complete control): Preemergence, 500 g ai/ha, visual injury approx. 10 d
Outline: as §2

[10] = test system: giant foxtail (Setaria faberii); assay: Test A postemergence; conditions: postemergence; for Foxtail, Giant plant response rating: 125 g ai/ha, visual injury rating on 0 to 100 scale (0 no effect, 100 complete control), approx. 10 d; for Plant response rating, Foxtail, Giant: 500 g ai/ha, 0 to 100 scale, 0 no effect, 100 complete control
Outline: as §2

[11] = test system: Galium (catchweed bedstraw, Galium aparine); assay: Test A postemergence; conditions: postemergence; for Galium plant response rating: 125 g ai/ha, visual injury rating on 0 to 100 scale (0 no effect, 100 complete control), approx. 10 d; for Plant response rating, Galium: 500 g ai/ha, 0 to 100 scale, 0 no effect, 100 complete control
Outline: as §2

Kochia (Kochia scoparia) [12] = assay: Test A postemergence; conditions: postemergence; for Kochia plant response rating: 125 g ai/ha, visual injury rating on 0 to 100 scale (0 no effect, 100 complete control), approx. 10 d; for Plant response rating, Kochia: 500 g ai/ha, 0 to 100 scale, 0 no effect, 100 complete control
Outline: as §2

[13] = test system: pigweed (Amaranthus retroflexus); assay: Test A postemergence; conditions: postemergence; for Pigweed plant response rating: 125 g ai/ha, visual injury rating on 0 to 100 scale (0 no effect, 100 complete control), approx. 10 d; for Plant response rating, Pigweed: 500 g ai/ha, 0 to 100 scale, 0 no effect, 100 complete control
Outline: as §2

[14] = test system: ragweed (common ragweed, Ambrosia elatior); assay: Test A postemergence; conditions: postemergence; for Ragweed plant response rating: 125 g ai/ha, visual injury rating on 0 to 100 scale (0 no effect, 100 complete control), approx. 10 d; for Plant response rating, Ragweed: 500 g ai/ha, 0 to 100 scale, 0 no effect, 100 complete control
Outline: as §2

[15] = test system: ryegrass, Italian (Italian ryegrass, Lolium multiflorum); assay: Test A postemergence; conditions: postemergence; for Ryegrass, Italian plant response rating: 125 g ai/ha, visual injury rating on 0 to 100 scale (0 no effect, 100 complete control), approx. 10 d; for Plant response rating, Ryegrass, Italian: 500 g ai/ha, 0 to 100 scale, 0 no effect, 100 complete control
Outline: as §2

[16] = test system: wheat (Triticum aestivum); assay: Test A postemergence; conditions: postemergence; for Wheat plant response rating: 125 g ai/ha, visual injury rating on 0 to 100 scale (0 no effect, 100 complete control), approx. 10 d; for Plant response rating, Wheat: 500 g ai/ha, 0 to 100 scale, 0 no effect, 100 complete control
Outline: as §2

[17] = test system: blackgrass (Alopecurus myosuroides); assay: Test A postemergence; conditions: postemergence; for Blackgrass plant response rating: 125 g ai/ha, visual injury rating on 0 to 100 scale (0 no effect, 100 complete control), approx. 10 d; for Plant response rating, Blackgrass: 500 g ai/ha, 0 to 100 scale, 0 no effect, 100 complete control
Outline: as §2

[18] = test system: barnyardgrass (Echinochloa crus-galli); assay: Test A postemergence; conditions: postemergence; for Barnyardgrass plant response rating: 125 g ai/ha, visual injury rating on 0 to 100 scale (0 no effect, 100 complete control), approx. 10 d; for Plant response rating, Barnyardgrass: 500 g ai/ha, 0 to 100 scale, 0 no effect, 100 complete control
Outline: as §2

corn (Zea mays) = assay: Test A postemergence; conditions: postemergence; for Corn plant response rating: 125 g ai/ha, visual injury rating on 0 to 100 scale (0 no effect, 100 complete control), approx. 10 d; for Plant response rating, Corn: 500 g ai/ha, 0 to 100 scale, 0 no effect, 100 complete control
Outline: as §2

SMILES	Plant response rating, Foxtail, Giant [4]	Foxtail, Giant plant response rating (0 to 100 scale, 0 is no effect, 100 is complete control) [4]	Plant response rating, Kochia (Kochia (Kochia scoparia) [5])	Kochia plant response rating (0 to 100 scale, 0 is no effect, 100 is complete control) (Kochia (Kochia scoparia) [5])	Plant response rating, Pigweed [6]	Pigweed plant response rating (0 to 100 scale, 0 is no effect, 100 is complete control) [6]	Plant response rating, Ragweed [7]	Ragweed plant response rating (0 to 100 scale, 0 is no effect, 100 is complete control) [7]	Plant response rating, Ryegrass, Italian [8]	Ryegrass, Italian plant response rating (0 to 100 scale, 0 is no effect, 100 is complete control) [8]	Plant response rating, Barnyardgrass [9]	Barnyardgrass plant response rating (0 to 100 scale, 0 is no effect, 100 is complete control) [9]	Foxtail, Giant plant response rating [10]	Plant response rating, Foxtail, Giant [10]	Galium plant response rating [11]	Plant response rating, Galium [11]	Kochia plant response rating (Kochia (Kochia scoparia) [12])	Plant response rating, Kochia (Kochia (Kochia scoparia) [12])	Pigweed plant response rating [13]	Plant response rating, Pigweed [13]	also measured
Cc1cc(C2CN(C)C(=O)C2C(=O)Nc2cccc(F)c2F)ccc1F (stereo not drawn) [Compound 403]	90	90	70	80	30	60	50	60	20	70	90	90	90	90	50	60	40	60	50	50	Plant response rating, Rice (rice (Oryra sativa); 250 g ai/ha): 0; Plant response rating, Sedge, Umbrella ([1]; 250 g ai/ha): 0; Plant response rating, Barnyardgrass ([2]; 250 g ai/ha): 75; Plant response rating, Ducksalad ([3]; 250 g ai/ha): 100; Ragweed plant response rating [14]: 0; Plant response rating, Ragweed [14]: 30; Ryegrass, Italian plant response rating [15]: 50; Plant response rating, Ryegrass, Italian [15]: 70; Wheat plant response rating [16]: 70; Plant response rating, Wheat [16]: 80; Blackgrass plant response rating [17]: 50; Plant response rating, Blackgrass [17]: 60; Barnyardgrass plant response rating [18]: 90; Plant response rating, Barnyardgrass [18]: 90; Corn plant response rating (corn (Zea mays)): 70; Plant response rating, Corn (corn (Zea mays)): 90
O=C1NCC(c2cccc(OC(F)F)c2)C1C(=O)Nc1cccc(OC(F)F)c1 (stereo not drawn) [Compound 422]	60	70	0	0	20	30	0	0	0	0	40	70	50	60	30	70	50	60	40	60	Plant response rating, Rice (rice (Oryra sativa); 500 g ai/ha): 0; Plant response rating, Sedge, Umbrella ([1]; 500 g ai/ha): 0; Plant response rating, Barnyardgrass ([2]; 500 g ai/ha): 0; Plant response rating, Ducksalad ([3]; 500 g ai/ha): 50; Ragweed plant response rating [14]: 0; Plant response rating, Ragweed [14]: 0; Ryegrass, Italian plant response rating [15]: 0; Plant response rating, Ryegrass, Italian [15]: 0; Wheat plant response rating [16]: 0; Plant response rating, Wheat [16]: 0; Blackgrass plant response rating [17]: 30; Plant response rating, Blackgrass [17]: 50; Barnyardgrass plant response rating [18]: 50; Plant response rating, Barnyardgrass [18]: 60; Corn plant response rating (corn (Zea mays)): 0; Plant response rating, Corn (corn (Zea mays)): 0
